In patent publication US11584765B2 (priority 2017, dated 2023):

System: C57BL/6 mice
Assay: animal or person
Type: in vivo
Settings: Mus musculus, sc, 0.5 h, s.c. administration, 30 min, 55° C. water, read-out: ED50 (mg/kg) at 30 min on C57BL/6 mice in Warm-water Tail-flick Test

Compound	ED50
CCOCC1(CCc2ccccc2)CCN(Cc2ccc(CC(=O)NC)cc2)CC1 [Compound 162, 2-(4-((4-(ethoxymethyl)-4-phenethylpiperidin-1-yl)methyl)phenyl)-N-methylacetamide]	> 10 mg/kg
CCOCC1(CCc2ccccc2)CCN(Cc2ccc(CC(C)O)cc2)CC1 (centres unmarked) [Compound 163, 1-(4-((4-(ethoxymethyl)-4-phenethylpiperidin-1-yl)methyl)phenyl)propan-2-ol]	> 10 mg/kg
CC(=O)Nc1ccc(CN2CCC(CCc3ccccc3)(C3(C)CC=CCO3)CC2)cc1.Cl (centres unmarked) [Compound 164, N-(4-((4-(2-methyl-3,6-dihydro-2H-pyran-2-yl)-4-phenethylpiperidin-1-yl)methyl)phenyl)acetamide HCl]	> 10 mg/kg
CC(=O)Nc1ccc(CN2CCC(CCc3ccccc3)(C3(C)CCCCO3)CC2)cc1 (centres unmarked) [Compound 165, N-(4-((4-(2-methyltetrahydro-2H-pyran-2-yl)-4-phenethylpiperidin-1-yl)methyl)phenyl)acetamide]	< 10 mg/kg
CCOCC1(/C=C/c2ccccn2)CCN(Cc2ccc(NC(C)=O)cc2)CC1 [Compound 166, (E)-N-(4-((4-(ethoxymethyl)-4-(2-(pyridin-2-yl)vinyl)piperidin-1-yl)methyl)phenyl)acetamide]	> 10 mg/kg
CCOCC1(/C=C/c2ccsc2)CCN(Cc2ccc(NC(C)=O)cc2)CC1 [Compound 167, (E)-N-(4-((4-(ethoxymethyl)-4-(2-(thiophen-3-yl)vinyl)piperidin-1-yl)methyl)phenyl)acetamide]	> 10 mg/kg
CCOCC1(/C=C/c2ccc3ccccc3c2)CCN(Cc2ccc(NC(C)=O)cc2)CC1 [Compound 168, (E)-N-(4-((4-(ethoxymethyl)-4-(2-(naphthalen-2-yl)vinyl)piperidin-1-yl)methyl)phenyl)acetamide]	> 10 mg/kg
CCOCC1(CCc2ccccc2)CCN(Cc2ccc(CNC(C)=O)cc2)CC1.Cl [Compound 169, N-(4-((4-(ethoxymethyl)-4-phenethylpiperidin-1-yl)methyl)benzyl)acetamide HCl]	> 10 mg/kg
CCOCC1(CCc2ccccc2OC)CCN(Cc2ccc(NC(C)=O)cc2)CC1 [Compound 170, N-(4-((4-(ethoxymethyl)-4-(2-methoxy-phenethyl)piperidin-1-yl)methyl)phenyl)acetamide]	> 10 mg/kg
CC(=O)Nc1ccc(CN2CCC(CCc3cccs3)(C3CCO3)CC2)cc1 (centres unmarked) [Compound 171, N-(4-((4-(oxetan-2-yl)-4-(2-(thiophen-2-yl)ethyl)piperidin-1-yl)methyl)phenyl)acetamide]	< 10 mg/kg
CC(=O)Nc1ccc(CN2CCC(CCc3cccs3)(C3CCCO3)CC2)cc1 (centres unmarked) [Compound 172, N-(4-((4-(tetrahydrofuran-2-yl)-4-(2-(thiophen-2-yl)ethyl)piperidin-1-yl)methyl)phenyl)acetamide]	< 10 mg/kg
CCOCC1(CCc2ccccc2)CCN(Cc2ccc(NC=O)s2)CC1 [Compound 173, N-(5-((4-(ethoxymethyl)-4-phenethylpiperidin-1-yl)methyl)thiophen-2-yl)formamide]	> 10 mg/kg
CCOCC1(CCc2ccccc2)CCN(c2ccc(CNC(C)=O)cc2)CC1 [Compound 174, N-(4-(4-(ethoxymethyl)-4-phenethylpiperidin-1-yl)benzyl)acetamide]	> 10 mg/kg
CC(=O)Nc1ccc(CN2CCC(CCc3ccccc3)(C3C=CC(C)O3)CC2)cc1 (centres unmarked) [Compound 175, N-(4-((4-(5-methyl-2,5-dihydrofuran-2-yl)-4-phenethylpiperidin-1-yl)methyl)phenyl)acetamide]	< 10 mg/kg
CCOCC1(CCc2ccccc2)CCN(Cc2cccc(NC(C)=O)c2)CC1 [Compound 176, N-(3-((4-(ethoxymethyl)-4-phenethylpiperidin-1-yl)methyl)phenyl)acetamide]	> 10 mg/kg
CCOCC1(CCc2cccs2)CCN(Cc2ccc(NC(C)=O)cc2)C1 (centres unmarked) [Compound 177, N-(4-((3-(ethoxymethyl)-3-(2-(thiophen-2-yl)ethyl)pyrrolidin-1-yl)methyl)phenyl)acetamide]	< 10 mg/kg
CCOCC1(CCc2ccsc2)CCN(Cc2ccc(NC(C)=O)cc2)C1 (centres unmarked) [Compound 178, N-(4-((3-(ethoxymethyl)-3-(2-(thiophen-3-yl)ethyl)pyrrolidin-1-yl)methyl)phenyl)acetamide]	< 10 mg/kg
CC(=O)Nc1ccc(CN2CCC(CCc3ccccc3)(C3C=CCO3)C2)cc1 (centres unmarked) [Compound 179, N-(4-((3-(2,5-dihydrofuran-2-yl)-3-phenethylpyrrolidin-1-yl)methyl)phenyl)acetamide]	< 10 mg/kg
CC(=O)Nc1ccc(CN2CCC(CCc3ccccc3)(C3CCCO3)C2)cc1 (centres unmarked) [Compound 180, N-(4-((3-phenethyl-3-(tetrahydrofuran-2-yl)pyrrolidin-1-yl)methyl)phenyl)acetamide]	> 10 mg/kg
CCOCC1(CCc2ccccc2)CCN(Cc2ccc(CC(=O)OC)cc2)CC1 [Compound 181, methyl 2-(4-((4-(ethoxymethyl)-4-phenethylpiperidin-1-yl)methyl)phenyl)acetate]	> 10 mg/kg
CC(=O)Nc1ccc(CN2CCC(CCc3cccs3)(C3C=CCO3)CC2)cc1 (centres unmarked) [Compound 182, N-(4-((4-(2,5-dihydrofuran-2-yl)-4-(2-(thiophen-2-yl)ethyl)piperidin-1-yl)methyl)phenyl)acetamide]	> 10 mg/kg

Compound	ED50
CC(=O)Nc1ccc(CN2CCC(CCc3cccs3)(c3ccccn3)CC2)cc1 [Compound 183, N-(4-((4-(pyridin-2-yl)-4-(2-(thiophen-2-yl)ethyl)piperidin-1-yl)methyl)phenyl)acetamide]	> 10 mg/kg
CC(=O)Nc1ccc(CN2CCC(CCc3ccsc3)(c3ccccn3)CC2)cc1 [Compound 184, N-(4-((4-(pyridin-2-yl)-4-(2-(thiophen-3-yl)ethyl)piperidin-1-yl)methyl)phenyl)acetamide]	> 10 mg/kg
CC(=O)Nc1ccc(CN2CCC(CCc3ccsc3)(C3CCO3)CC2)cc1 (centres unmarked) [Compound 185, N-(4-((4-(oxetan-2-yl)-4-(2-(thiophen-3-yl)ethyl)piperidin-1-yl)methyl)phenyl)acetamide]	< 10 mg/kg
CC(=O)Nc1ccc(CN2CCC(CCc3ccsc3)(C3CCCO3)CC2)cc1 (centres unmarked) [Compound 186, N-(4-((4-(tetrahydrofuran-2-yl)-4-(2-(thiophen-3-yl)ethyl)piperidin-1-yl)methyl)phenyl)acetamide]	> 10 mg/kg
CCOCC1(CCc2ccccc2)CCN(Cc2ccc(-c3nnc(N)o3)cc2)CC1 [Compound 187, 5-(4-((4-(ethoxymethyl)-4-phenethylpiperidin-1-yl)methyl)phenyl)-1,3,4-oxadiazol-2-amine]	> 10 mg/kg
CCOCC1(CCc2ccccc2)CCN(Cc2ccc(-c3nnc(OCC)[nH]3)cc2)CC1 [Compound 188, 1-(4-(5-ethoxy-4H-1,2,4-triazol-3-yl)benzyl)-4-(ethoxymethyl)-4-phenethylpiperidine]	> 10 mg/kg
CC(=O)Nc1ccc(CN2CCC(CCc3ccccc3)(c3ccco3)C2)cc1 (centres unmarked) [Compound 189, N-(4-((3-(furan-2-yl)-3-phenethylpyrrolidin-1-yl)methyl)phenyl)acetamide]	> 10 mg/kg
CC(=O)Nc1ccc(CN2CCC(CCc3ccsc3)(c3ccccn3)C2)cc1 (centres unmarked) [Compound 190, N-(4-((3-(pyridin-2-yl)-3-(2-(thiophen-3-yl)ethyl)pyrrolidin-1-yl)methyl)phenyl)acetamide]	> 10 mg/kg
CC(=O)Nc1ccc(CN2CCC(CCc3ccsc3)(C3CCO3)C2)cc1 (centres unmarked) [Compound 191]	< 10 mg/kg
CCn1nnn(CCN2CCC(CCc3ccccc3)(C3CCCO3)C2)c1=O (centres unmarked) [Compound 192, 1-ethyl-4-(2-(3-phenethyl-3-(tetrahydrofuran-2-yl)pyrrolidin-1-yl)ethyl)-1H-tetrazol-5(4H)-one]	> 10 mg/kg
c1ccc(CCC2(C3CCCO3)CCN(Cc3cccn3-c3cccnc3)C2)cc1 (centres unmarked) [Compound 193, 3-(2-((3-phenethyl-3-(tetrahydrofuran-2-yl)pyrrolidin-1-yl)methyl)-1H-pyrrol-1-yl)pyridine]	> 10 mg/kg
c1ccc(CCC2(C3CCCO3)CCN(Cc3ccccc3-c3cccs3)C2)cc1 (centres unmarked) [Compound 194, 3-phenethyl-3-(tetrahydrofuran-2-yl)-1-(2-(thiophen-2-yl)benzyl)pyrrolidine]	> 10 mg/kg
c1ccc(CCC2(C3CCCO3)CCN(Cc3ccccc3-c3ccco3)C2)cc1 (centres unmarked) [Compound 195, 1-(2-(furan-2-yl)benzyl)-3-phenethyl-3-(tetrahydrofuran-2-yl)pyrrolidine]	> 10 mg/kg
Clc1ccccc1CN1CCC(CCc2ccccc2)(C2CCCO2)C1 (centres unmarked) [Compound 196, 1-(2-chlorobenzyl)-3-phenethyl-3-(tetrahydrofuran-2-yl)pyrrolidine]	> 10 mg/kg
Cc1nc(CN2CCC(CCc3ccccc3)(C3CCCO3)C2)cs1 (centres unmarked) [Compound 197, 2-methyl-4-((3-phenethyl-3-(tetrahydrofuran-2-yl)pyrrolidin-1-yl)methyl)thiazole]	> 10 mg/kg
Cn1cc(CN2CCC(CCc3ccccc3)(C3CCCO3)C2)cn1 (centres unmarked) [Compound 198, 1-methyl-4-((3-phenethyl-3-(tetrahydrofuran-2-yl)pyrrolidin-1-yl)methyl)-1H-pyrazole]	< 10 mg/kg
Fc1ccc(-n2cccn2)c(CN2CCC(CCc3ccccc3)(C3CCCO3)C2)c1 (centres unmarked) [Compound 199, 1-(4-fluoro-2-((3-phenethyl-3-(tetrahydrofuran-2-yl)pyrrolidin-1-yl)methyl)phenyl)-1H-pyrazole]	> 10 mg/kg
CC(=O)Nc1ccc(CN2CCC(CCc3ccccc3)(C3(C)CCCO3)C2)cc1 (centres unmarked) [Compound 200, N-(4-((3-(2-methyltetrahydro-furan-2-yl)-3-phenethylpyrrolidin-1-yl)methyl)phenyl)acetamide]	< 10 mg/kg
CC(=O)Nc1ccc(CN2CCC(CCc3ccccc3)(C3OCC3(C)C)C2)cc1 (centres unmarked) [Compound 201, N-(4-((3-(3,3-dimethyloxetan-2-yl)-3-phenethylpyrrolidin-1-yl)methyl)phenyl)acetamide]	< 10 mg/kg
CC(=O)Nc1ccc(CN2CCC(CCc3ccccc3)(C3C=C(C)CO3)C2)cc1 (centres unmarked) [Compound 202, N-(4-((3-(4-methyl-2,5-dihydrofuran-2-yl)-3-phenethylpyrrolidin-1-yl)methyl)phenyl)acetamide]	< 10 mg/kg
